Measurements taken from patent publication US20210322508A1, “PEPTIDES AND COMPOSITIONS FOR TARGETED TREATMENT AND IMAGING” (SIGNABLOK, INC., priority 2018, published 2021).
Residues, ends and D or L forms follow the SMILES beside them.

Key:
[1] = test system: human non-small cell lung cancer H292 xenograft; assay: H292 xenograft mouse model; format: in vivo, mice; details: vs vehicle
Description: (§1) PTX, paclitaxel. ****, P<0.0001 as compared with vehicle-treated animals.
(§2) PTX, paclitaxel. ****, p<0.0001 as compared with vehicle-treated animals.
(§3) Abbreviations: PTX, paclitaxel; PBS, phosphate-buffer saline.

[2] = test system: human non-small cell lung cancer A549 xenograft; format: in vivo; details: vs vehicle; for tumor growth: PTX 20 mg/kg as comparator
Protocol: as §1, §2, §3
Treatment persisted for 21 days. Mean tumor volumes are calculated and plotted. Body weighs are plotted.

[3] = test system: human pancreatic cancer BxPC-3 xenograft; details: for intratumoral macrophage infiltration (F4/80 staining): 25 mg/kg GF9, 2.5 mg/kg GF9-sSLP/GF9-LPC, 4 mg/kg GA/E31-sSLP where stated; for tumor growth: i.p. 5qw, 25 mg/kg GF9, 2.5 mg/kg GF9-SLP, 4 mg/kg GA/E31-SLP where stated
Protocol: (B) F4/80 staining. Results are expressed as the mean±SEM (n=4 mice per group). *, p<0.05; **, p<0.01, ****, p<0.0001 (versus vehicle). […] Scale bar=200 μm.
Treatment persisted for 31, 29 and 29 days for mice containing AsPC-1, BxPC-3 and Capan-1 tumor xenografts, respectively. Mean tumor volumes are calculated and plotted. All results are expressed as the mean±SEM (n=6 mice per group). On the final day of treatment, tumor volumes were compared between the drug-treated and control groups. **, p<0.01; ***, p<0.001; ****, p<0.0001 (versus vehicle).
As described herein, after tumors in AsPC-1-, BxPC-3- or Capan-1-bearing mice reached a volume of 150-200 mm^3, mice were randomized into groups and intraperitoneally (i.p.) administered once daily 5 times per week (5qw) with either vehicle (black diamonds), GA/E31-dSLP (light gray triangles) or GA/E31-sSLP (white triangles) at indicated doses. Treatment persisted for 31, 29 and 29 days for mice containing AsPC-1, BxPC-3 and Capan-1 tumor xenografts, respectively. Mean tumor volumes are calculated and plotted. All results are expressed as the mean±SEM (n=6 mice per group). On the final day of treatment, tumor volumes were compared between the drug-treated and control groups. **, p<0.01; ***, p<0.001; ****, p<0.0001 (versus vehicle).
Treatment persisted for 31, 29 and 29 days for mice containing AsPC-1, BxPC-3 and Capan-1 tumor xenografts, respectively. Kaplan-Meier survival curves are shown for AsPC-1-, BxPC-3- or Capan-1-bearing mice (n=6 mice per group). **, p<0.01; ***, p<0.001 by log-rank test (versus vehicle).
Serum CSF1, VEGF and IL-6 levels were analyzed on study days 1 and 8 in BxPC-3-bearing mice treated daily 5 times per week (5qw) with either vehicle (black diamonds), GF9 (white circles) or GF9-LPC (black circles) at indicated doses. Results are expressed as the mean±SEM (n=5 mice per group). *, p<0.05; **, p<0.01; ***, p<0.001; ****, p<0.0001 (versus vehicle).

[4] = test system: TNF-alpha, IL-1beta and IL-6; assay: LPS-induced endotoxemia: in vivo serum cytokine release; set-up: species or system mouse; details: free peptides, at this dose; serum 90 min after 30 mg/kg LPS
Protocol: One hour later, mice received i.p. injection of 30 mg/kg LPS from E. coli 055:B5 (Sigma). In some experiments, all formulations were i.p. administered 1 and 3 h after LPS injection. The viability of mice was examined hourly. Body weights were measured daily. In all of the animal experiments, blood samples were collected via a sub-mandibular (cheek) bleed at 90 min after administration of LPS. Statistical analysis of survival curves was performed by the Kaplan-Meier test. Comparisons were made using two-tailed Student's t test. The production of cytokines in serum was measured by a standard sandwich cytokine ELISA procedure using TNF-alpha, IL-1beta and IL-6 ELISA kits (Pierce Biotechnology, Thermo Scientific, Rockford, Ill.) according to the instructions of the manufacturer. Statistical significances in cytokine analysis ELISA data were determined by two-tailed Student's t test.
Naïve, female C57BL/6 mice at 8 to 10 weeks of age (18 to 21 g) from the Jackson Laboratory were randomly grouped (10 mice per group) and i.p. injected with vehicle or the indicated doses of dexamethasone (DEX), GF9, G-TE21, G-HV21 and G-KV21. One hour later, mice received i.p. injection of 30 mg/kg LPS from E. coli 055:B5 (Sigma). […] Body weights were measured daily. […] Statistical significances in cytokine analysis ELISA data were determined by two-tailed Student's t test.

[5] = test system: LPS-stimulated J774A.1 macrophages (TNF-alpha, IL-6, IL-1beta); assay: In vitro cytokine release by LPS-stimulated macrophages; format: cell-based, mouse; details: 10 ng/ml after pre-incubation with HDL; LPS 1 μg/ml, 24 h
Protocol: (§4) The BALB/c murine macrophage cell line J774A.1 (ATCC TIB-67) were obtained from the American Type Culture Collection (ATCC, Manassas, Va.). Macrophages were cultured in 48-well plates (Corning, Cambridge, Mass.) for 24 h at 37° C. in the presence of LPS (1 μg/ml, Escherichia coli 055:B5, Sigma) in combination with 10 ng/ml peptides either pre-incubated or not with HDL. Cell-free supernatants were harvested and stored at −20° C. for later cytokine quantification. TNF-alpha, IL-6, and IL-1beta were assayed using commercial ELISA kits (Pierce Biotechnology, Thermo Scientific, Rockford, Ill.) according to the recommendations of the manufacturer. Results were represented as the mean±S.D. of three independent experiments. Statistical significances in in vitro macrophage uptake assay were determined by two-tailed Student's t test.
as §4, with “Macrophages were cultured in 48-well plates (Corning, Cambridge, Mass.) for 24 h at 37° C. in the presence of LPS (1 μg/ml, Escherichia coli 055:B5, Sigma) in combination with 10 ng/ml peptides either pre-incubated or not with HDL.” left out

CC(C)C[C@H](NC(=O)[C@H](Cc1ccccc1)NC(=O)CN)C(=O)N[C@@H](CO)C(=O)N[C@@H](CCCCN)C(=O)N[C@@H](CO)C(=O)N[C@@H](CC(C)C)C(=O)N[C@H](C(=O)N[C@@H](Cc1ccccc1)C(=O)NCC(=O)N[C@@H](CCC(=O)O)C(=O)N[C@@H](CCC(=O)O)C(=O)N[C@@H](CC[S+](C)[O-])C(=O)N[C@@H](CCCNC(=N)N)C(=O)N[C@@H](CC(=O)O)C(=O)N[C@@H](CCCNC(=N)N)C(=O)N[C@@H](C)C(=O)N[C@@H](CCCNC(=N)N)C(=O)N[C@@H](C)C(=O)N[C@@H](Cc1c[nH]cn1)C(=O)N[C@H](C(=O)O)C(C)C)C(C)C (some centres unmarked) [G-HV21] (HELM PEPTIDE1{G.F.L.S.K.S.L.V.F.G.E.E.[CS(=O)CC[C@H](N[*:1])C(=O)[*:2]].R.D.R.A.R.A.H.V}$$$$V2.0)
tumor growth [1]: significantly inhibit the tumor growth | average tumor weights [2]: significantly decrease the tumor weight | tumor growth [2]: significantly inhibit the tumor growth | intratumoral macrophage infiltration (F4/80 staining) [3]: reduce macrophage infiltration into the tumor | tumor growth [3]: significantly inhibits the tumor growth | LPS-stimulated cytokine production in vivo [4]: inhibit LPS-stimulated cytokine production in vivo | production of cytokines by LPS-stimulated macrophages [5]: inhibit production of cytokines by LPS-stimulated macrophages

CC(C)C[C@H](NC(=O)[C@H](Cc1ccccc1)NC(=O)CN)C(=O)N[C@@H](CO)C(=O)N[C@@H](CCCCN)C(=O)N[C@@H](CO)C(=O)N[C@@H](CC(C)C)C(=O)N[C@H](C(=O)N[C@@H](Cc1ccccc1)C(=O)N[C@@H](Cc1c[nH]c2ccccc12)C(=O)N[C@@H](CCC(N)=O)C(=O)N[C@@H](CCC(=O)O)C(=O)N[C@@H](CCC(=O)O)C(=O)N[C@@H](CC[S+](C)[O-])C(=O)N[C@@H](CCC(=O)O)C(=O)N[C@@H](CC(C)C)C(=O)N[C@@H](Cc1ccc(O)cc1)C(=O)N[C@@H](CCCNC(=N)N)C(=O)N[C@@H](CCC(N)=O)C(=O)N[C@@H](CCCCN)C(=O)N[C@H](C(=O)O)C(C)C)C(C)C (some centres unmarked) [G-KV21] (HELM PEPTIDE1{G.F.L.S.K.S.L.V.F.W.Q.E.E.[CS(=O)CC[C@H](N[*:1])C(=O)[*:2]].E.L.Y.R.Q.K.V}$$$$V2.0)
tumor growth [1]: significantly inhibit the tumor growth | average tumor weights [2]: significantly decrease the tumor weight | tumor growth [2]: significantly inhibit the tumor growth | intratumoral macrophage infiltration (F4/80 staining) [3]: reduce macrophage infiltration into the tumor | tumor growth [3]: significantly inhibits the tumor growth | LPS-stimulated cytokine production in vivo [4]: inhibit LPS-stimulated cytokine production in vivo | production of cytokines by LPS-stimulated macrophages [5]: inhibit production of cytokines by LPS-stimulated macrophages
